Test results: patent US6566334B1, “Short amphipathic peptides with activity against bacteria and intracellular pathogens” (priority 1997, dated 2003)
Where a SMILES comes first, the peptide text is derived from it. [ ]: non-standard residue; d: D form. Ac6c = NC1(C(=O)O)CCCCC1; Api = NC1(C(=O)O)CCNCC1; Aib = CC(C)(N)C(=O)O

Columns and labels:
[1] = tested on: Escherichia coli, ATCC 25922; settings: for Peptide minimum inhibitory concentration, E. coli: MIC after 4 h, median of 3-7 tests, corrected for actual peptide concentration
[2] = in vitro; settings: BALB/c, mouse, normal (non-infected) primary murine peritoneal macrophages, Normal Macrophage Survival Rate
[3] = tested on: Normal murine macrophages; settings: 10 μM
[4] = target: trypsin (Sus scrofa, UniProt P00761); test: Resistance to trypsin, E. coli MIC assay after trypsin incubation; settings: trypsin 20 min at 37° C., then MIC assay with E. coli
[5] = tested on: Staphylococcus aureus, ATCC 25723; settings: for Peptide minimum inhibitory concentration, S. aureus: MIC after 4 h, median of 3-7 tests, corrected for actual peptide concentration
[6] = tested on: B. abortus infected BALB/c mice; settings: mouse, in vivo
[7] = Circular dichroism (CD) in SDS micelles, percent helicity; format: physicochemical
[8] = tested on: B. abortus strain 2308; parameters: species or system BALB/c mice; settings: mouse, in vivo; for % Bacterial Reduction: iv
[9] = Solubility in water; settings: without any organic modifier present
[10] = tested on: Murine macrophages infected with virulent B. abortus, strain 2308; format: cell-based, BALB/c mice

trypsin, sequence (P00761 9-231): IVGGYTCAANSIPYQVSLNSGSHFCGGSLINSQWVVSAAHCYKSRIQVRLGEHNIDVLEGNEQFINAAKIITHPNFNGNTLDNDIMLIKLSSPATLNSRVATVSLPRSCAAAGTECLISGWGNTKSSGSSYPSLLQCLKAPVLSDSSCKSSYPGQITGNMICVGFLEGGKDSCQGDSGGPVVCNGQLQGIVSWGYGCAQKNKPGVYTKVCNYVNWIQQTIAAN

CC(C)(NC(=O)C(C)(C)NC(=O)[C@H](CCCCN)NC(=O)[C@H](CCCCN)NC(=O)C(C)(C)NC(=O)C(C)(C)NC(=O)[C@H](CCCCN)NC(=O)C(C)(C)NC(=O)C(C)(C)NC(=O)[C@H](CCCCN)NC(=O)[C@@H](N)CCCCN)C(N)=O [Ai-11, H—LysLysAibAibLysAibAibLysLysAibAib—NH2] (H-KK[Aib][Aib]K[Aib][Aib]KK[Aib][Aib]-NH2)
Peptide minimum inhibitory concentration, E. coli [1]: 55 µM | viability at 1 h, 0.1 µM [2]: 88% | viability at 1 h, 1 µM [2]: 89% | viability at 1 h, 10 µM [2]: 81% | viability at 1 h, 50 µM [2]: 56.6% | Effect of peptide treatment on normal macrophages (in words) [3]: small effect | Effect of incubation with trypsin on antibacterial activity [4]: did not decrease antibacterial activity | Peptide minimum inhibitory concentration, S. aureus [5]: >220 µM

CC(=O)N[C@@H](CCCCN)C(=O)N[C@@H](CCCCN)C(=O)NC(C)(C)C(=O)NC(C)(C)C(=O)N[C@@H](CCCCN)C(=O)NC(C)(C)C(=O)NC(C)(C)C(=O)N[C@@H](CCCCN)C(=O)N[C@@H](CCCCN)C(=O)NC(C)(C)C(=O)NC(C)(C)C(N)=O [Ai-11-ac, Ac—LysLysAibAibLysAibAibLysLysAibAib—NH2] (Ac-KK[Aib][Aib]K[Aib][Aib]KK[Aib][Aib]-NH2)
Peptide minimum inhibitory concentration, E. coli [1]: 6.6 µM | viability at 1 h, 0.1 µM [2]: 92% | viability at 1 h, 1 µM [2]: 82% | viability at 1 h, 10 µM [2]: 86% | viability at 1 h, 50 µM [2]: 58.5% | Effect of peptide treatment on normal macrophages (in words) [3]: small effect | Effect of incubation with trypsin on antibacterial activity [4]: did not decrease antibacterial activity | Peptide minimum inhibitory concentration, S. aureus [5]: 212 µM

CC(C)(NC(=O)C(C)(C)NC(=O)[C@H](CCCCN)NC(=O)[C@H](CCCCN)NC(=O)C(C)(C)NC(=O)C(C)(C)NC(=O)[C@H](CCCCN)NC(=O)C(C)(C)NC(=O)C(C)(C)NC(=O)[C@H](CCCCN)NC(=O)[C@H](CCCCN)NC(=O)C(C)(C)NC(=O)C(C)(C)NC(=O)[C@@H](N)CCCCN)C(N)=O [Ai-14, H—LysAibAibLysLysAibAibLysAibAibLysLysAibAib—NH2] (H-K[Aib][Aib]KK[Aib][Aib]K[Aib][Aib]KK[Aib][Aib]-NH2)
Peptide minimum inhibitory concentration, E. coli [1]: 5.5 µM | viability at 1 h, 0.1 µM [2]: 91% | viability at 1 h, 1 µM [2]: 88% | viability at 1 h, 10 µM [2]: 88% | viability at 1 h, 50 µM [2]: 57% | Effect of incubation with trypsin on antibacterial activity [4]: did not decrease antibacterial activity | Peptide minimum inhibitory concentration, S. aureus [5]: 11 µM

NCCCC[C@H](NC(=O)[C@H](CCCCN)NC(=O)C1(NC(=O)C2(NC(=O)[C@H](CCCCN)NC(=O)C3(NC(=O)C4(NC(=O)[C@H](CCCCN)NC(=O)[C@@H](N)CCCCN)CCCCC4)CCCCC3)CCCCC2)CCCCC1)C(=O)NC1(C(N)=O)CCCCC1 [Ch-10, H—LysLysChChLysChChLysLysCh—NH2] (H-KK[Ac6c][Ac6c]K[Ac6c][Ac6c]KK[Ac6c]-NH2)
Peptide minimum inhibitory concentration, E. coli [1]: 5.7 µM | Effect of incubation with trypsin on antibacterial activity [4]: did not decrease antibacterial activity | Stress or death of infected mice after treatment [6]: died immediately after treatment | Survival of infected mice after treatment [6]: lived | Peptide minimum inhibitory concentration, S. aureus [5]: 2.8 µM

NCCCC[C@H](NC(=O)[C@H](CCCCN)NC(=O)C1(NC(=O)C2(NC(=O)[C@H](CCCCN)NC(=O)C3(NC(=O)C4(NC(=O)[C@H](CCCCN)NC(=O)[C@@H](N)CCCCN)CCCCC4)CCCCC3)CCCCC2)CCCCC1)C(=O)NC1(C(=O)NC2(C(N)=O)CCCCC2)CCCCC1 [Ch-11, H—LysLysChChLysChChLysLysChCh—NH2] (H-KK[Ac6c][Ac6c]K[Ac6c][Ac6c]KK[Ac6c][Ac6c]-NH2)
Peptide minimum inhibitory concentration, E. coli [1]: 5.2 µM | Peptide minimum inhibitory concentration, S. aureus [5]: 2.6 µM

NCCCC[C@H](NC(=O)[C@H](CCCCN)NC(=O)C1(NC(=O)C2(NC(=O)[C@H](CCCCN)NC(=O)C3(NC(=O)C4(NC(=O)[C@H](CCCCN)NC(=O)[C@H](CCCCN)NC(=O)C5(NC(=O)C6(NC(=O)[C@@H](N)CCCCN)CCCCC6)CCCCC5)CCCCC4)CCCCC3)CCCCC2)CCCCC1)C(=O)NC1(C(N)=O)CCCCC1 [Ch-13, H—LysChChLysLysChChLysChChLysLysCh—NH2] (H-K[Ac6c][Ac6c]KK[Ac6c][Ac6c]K[Ac6c][Ac6c]KK[Ac6c]-NH2)
Peptide minimum inhibitory concentration, E. coli [1]: 6.5 µM | Effect of incubation with trypsin on antibacterial activity [4]: did not decrease antibacterial activity | Stress or death of infected mice after treatment [6]: died immediately after treatment | Survival of infected mice after treatment [6]: lived | Peptide minimum inhibitory concentration, S. aureus [5]: 2.2 µM

CC(C)(NC(=O)[C@H](CCCCN)NC(=O)C(C)(C)NC(=O)C(C)(C)NC(=O)C1(N)CCNCC1)C(=O)NC(C)(C)C(=O)N[C@@H](CCCCN)C(=O)NC(C)(C)C(=O)NC(C)(C)C(=O)NC1(C(N)=O)CCNCC1 [Ipi-10, H—ApiAibAibLysAibAibLysAibAibApi—NH2] (H-[Api][Aib][Aib]K[Aib][Aib]K[Aib][Aib][Api]-NH2)
222/206 intensity ratio (CD) ([7]; in the presence of SDS micelles): 0.32 | % Bacterial Reduction [8]: 55% | Effect of incubation with trypsin on antibacterial activity [4]: did not decrease antibacterial activity | Solubility in water [9]: readily soluble in water | Stress or death of infected mice after treatment [6]: did not die, but showed physiological signs of stress

CC(=O)NC1(C(=O)NC(C)(C)C(=O)NC(C)(C)C(=O)N[C@@H](CCCCN)C(=O)NC(C)(C)C(=O)NC(C)(C)C(=O)N[C@@H](CCCCN)C(=O)NC(C)(C)C(=O)NC(C)(C)C(=O)NC2(C(N)=O)CCNCC2)CCNCC1 [Ipi-10-ac, Ac—ApiAibAibLysAibAibLysAibAibApi—NH2] (Ac-[Api][Aib][Aib]K[Aib][Aib]K[Aib][Aib][Api]-NH2)
Stress or death of infected mice after treatment [6]: did not die, but showed physiological signs of stress

CC(C)(N)C(=O)NC(C)(C)C(=O)NC1(C(=O)N[C@@H](CCCCN)C(=O)NC(C)(C)C(=O)NC(C)(C)C(=O)NC2(C(=O)N[C@@H](CCCCN)C(=O)NC(C)(C)C(=O)NC(C)(C)C(N)=O)CCNCC2)CCNCC1 [Pi-10, H—AibAibApiLysAibAibApiLysAibAib—NH2] (H-[Aib][Aib][Api]K[Aib][Aib][Api]K[Aib][Aib]-NH2)
% Helicity (% α helix) ([7]; CD, 25 mM SDS micelles, 100-200 μM peptide): 43% | Infected Macrophage Survival Rate [10]: 55.0 ± 1.00 | Antibacterial activity against E. coli (in words) [1]: good antibacterial activity | viability at 1 h, 0.1 µM [2]: 95% | viability at 1 h, 1 µM [2]: 89% | viability at 1 h, 10 µM [2]: 90% | viability at 1 h, 50 µM [2]: 68% | Reduction of bacterial load compared to controls (in words) [8]: significantly reduced bacterial load | % Bacterial Reduction [8]: 90% | Effect of incubation with trypsin on antibacterial activity [4]: did not decrease antibacterial activity | Solubility in water [9]: readily soluble in water | Antibacterial activity against S. aureus (in words) [5]: moderate activity

CC(=O)NC(C)(C)C(=O)NC(C)(C)C(=O)NC1(C(=O)N[C@@H](CCCCN)C(=O)NC(C)(C)C(=O)NC(C)(C)C(=O)NC2(C(=O)N[C@@H](CCCCN)C(=O)NC(C)(C)C(=O)NC(C)(C)C(N)=O)CCNCC2)CCNCC1 [Pi-10-ac, Ac—AibAibApiLysAibAibApiLysAibAib—NH2] (Ac-[Aib][Aib][Api]K[Aib][Aib][Api]K[Aib][Aib]-NH2)
viability at 1 h, 0.1 µM [2]: 92% | viability at 1 h, 1 µM [2]: 89% | viability at 1 h, 10 µM [2]: 88% | viability at 1 h, 50 µM [2]: 49% | Stress or death of infected mice after treatment [6]: died immediately after treatment

H-GIGKFLHSAKKFGKAFVGEIMNS-OH [magainin 2, reference compound]
Effect of incubation with trypsin on antibacterial activity [4]: destroyed antibacterial activity

H-KAAKKAAKAAKKAA-NH2 [Al-14, H—LysAlaAlaLysLysAlaAlaLysAlaAlaLysLysAlaAla—NH2, reference compound]
Peptide minimum inhibitory concentration, E. coli [1]: >178 µM | % Bacterial Reduction [8]: −6% | Peptide minimum inhibitory concentration, S. aureus [5]: >178 µM

H-KWKVFKKIEKMGRNIRNGIVKAGPAIAVLGEAKAL-NH2 [cecropin B, reference compound]
Effect of incubation with trypsin on antibacterial activity [4]: destroyed antibacterial activity
